Laboratory results published in ChEMBL document CHEMBL4400552, “Design, synthesis and biological evaluation of novel human monoamine oxidase B inhibitors based on a fragment in an X-ray crystal structure” (Bioorg Med Chem Lett, 2019).

Experiments:
[1] = target: T1, Amine oxidase [flavin-containing] B (Homo sapiens, UniProt P27338); assay: Inhibition of human recombinant MAO-B expressed in insect cells at 1 uM using p-tyramine as substrate preincubated for 30 mins followed by substrate addition measured for 15 mins by resorufin dye-based fluorescence assay relative to control; conditions: 0.25 h; for INH: 1 µM; for inhibition at 1 µM: read-out: INH
T1 sequence (P27338 whole entry): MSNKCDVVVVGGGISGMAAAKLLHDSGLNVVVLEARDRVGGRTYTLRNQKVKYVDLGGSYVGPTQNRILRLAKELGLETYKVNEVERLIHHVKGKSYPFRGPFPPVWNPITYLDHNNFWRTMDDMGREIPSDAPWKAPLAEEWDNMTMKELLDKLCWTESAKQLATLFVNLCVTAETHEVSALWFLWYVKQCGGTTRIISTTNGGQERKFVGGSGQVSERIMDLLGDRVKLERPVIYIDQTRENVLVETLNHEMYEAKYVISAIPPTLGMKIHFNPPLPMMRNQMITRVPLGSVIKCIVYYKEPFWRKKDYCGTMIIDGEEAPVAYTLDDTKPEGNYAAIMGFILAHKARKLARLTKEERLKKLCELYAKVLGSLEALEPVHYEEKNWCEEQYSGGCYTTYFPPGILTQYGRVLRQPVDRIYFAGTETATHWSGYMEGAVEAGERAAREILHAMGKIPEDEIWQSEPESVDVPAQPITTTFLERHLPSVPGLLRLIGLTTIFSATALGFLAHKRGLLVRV

[2] = target: T2, Amine oxidase [flavin-containing] A (Homo sapiens, UniProt P21397); assay: Inhibition of human recombinant MAO-A expressed in insect cells using p-tyramine as substrate preincubated for 30 mins followed by substrate addition measured for 15 mins by resorufin dye-based fluorescence assay
T2 sequence (P21397 whole entry): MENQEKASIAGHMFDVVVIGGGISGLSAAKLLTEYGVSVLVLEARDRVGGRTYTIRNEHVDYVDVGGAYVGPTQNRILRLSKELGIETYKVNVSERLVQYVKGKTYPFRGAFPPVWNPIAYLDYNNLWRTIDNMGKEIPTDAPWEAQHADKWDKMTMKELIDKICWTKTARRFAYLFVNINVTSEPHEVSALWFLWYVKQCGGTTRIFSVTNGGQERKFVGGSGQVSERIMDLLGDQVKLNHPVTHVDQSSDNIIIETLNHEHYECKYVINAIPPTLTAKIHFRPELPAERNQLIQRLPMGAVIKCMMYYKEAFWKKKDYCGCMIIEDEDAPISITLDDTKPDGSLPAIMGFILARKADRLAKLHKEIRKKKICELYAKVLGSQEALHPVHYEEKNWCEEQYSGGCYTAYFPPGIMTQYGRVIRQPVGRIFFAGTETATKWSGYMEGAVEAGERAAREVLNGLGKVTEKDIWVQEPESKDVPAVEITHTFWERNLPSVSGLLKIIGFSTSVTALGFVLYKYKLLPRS

[3] = target: T1, Amine oxidase [flavin-containing] B; assay: Inhibition of human recombinant MAO-B expressed in insect cells using p-tyramine as substrate preincubated for 30 mins followed by substrate addition measured for 15 mins by resorufin dye-based fluorescence assay; assay type: cell-based
[4] = organism: Homo sapiens; assay: Selectivity index, ratio of IC50 for human recombinant MAO-A expressed in insect cells to IC50 for human recombinant MAO-B expressed in insect cells

SMILES | INH [1] | inhibition at 1 µM [1] | IC50 [2] | IC50 [3] | Ratio IC50 [4]
CC(C)=C1C(=O)Nc2ccc(OCc3cccc(C)c3)cc21 | Not Active |  |  |  | 
Cn1c(=O)[nH]c2ccc(OCc3cccc(Cl)c3)cc21 |  | 8.89% |  |  | 
CC(C)=C1C(=O)Nc2ccc(OCc3ccc(F)cc3)cc21 | Not Active |  |  |  | 
Cn1c(=O)[nH]c2ccc(OCCCc3ccccc3)cc21 |  | 14% | > 500 µM | 59.6 µM | > 8.39
CC(C)c1ccc(OCCOc2ccc3[nH]c(=O)n(C(C)C)c3c2)cc1 |  | 14.1% | > 500 µM | 66.7 µM | > 7.49
CCn1c(=O)[nH]c2ccc(OCCCc3ccccc3)cc21 |  | 4.56% |  |  | 
CC(C)=C1C(=O)Nc2ccc(OCCOc3ccccc3)cc21 | Not Active |  |  |  | 
CCn1c(=O)[nH]c2ccc(OCCOc3ccc(Cl)cc3)cc21 |  | 7.24% |  |  | 
Cn1c(=O)[nH]c2ccc(OCCc3ccc(Cl)cc3)cc21 |  | 19.9% |  |  | 
CC1(C)C(=O)Nc2ccc(OCc3cccc(Cl)c3)cc21 |  | 21.1% | > 500 µM | 279 µM | > 1.79
CCn1c(=O)[nH]c2ccc(OCCCOc3ccccc3)cc21 |  | 11.3% |  |  | 
Cn1c(=O)[nH]c2ccc(OCCc3ccccc3)cc21 | Not Active |  |  |  | 
O=C1Nc2ccc(OCc3ccc(Cl)c(Cl)c3)cc2C1=O |  | 95.7% | 117 µM | 0.003 µM | 38900
Cn1c(=O)[nH]c2cc(OCCCc3ccccc3)ccc21 | Not Active |  |  |  | 
O=C1Cc2cc(OCc3ccc(Cl)c(Cl)c3)ccc2N1 |  | 12.4% | > 500 µM | 17.2 µM | > 29.1
CC(C)C1C(=O)Nc2ccc(OCc3cccc(F)c3)cc21 (configuration not stated) |  | 12.7% | > 500 µM | 397 µM | > 1.62
CC(C)n1c(=O)[nH]c2ccc(OCCOc3cccc(F)c3)cc21 |  | 12.9% |  |  | 
CC1(C)C(=O)Nc2ccc(OCc3ccc(F)cc3)cc21 | Not Active |  |  |  | 
CCn1c(=O)[nH]c2ccc(OCCOc3cccc(F)c3)cc21 |  | 30.3% | > 500 µM | 190 µM | > 2.62
Cn1c(=O)[nH]c2ccc(OCCOc3ccc(Cl)cc3)cc21 |  | 9.94% |  |  | 
Cn1c(=O)[nH]c2ccc(OCc3ccccc3)cc21 | Not Active |  |  |  | 
O=C1Cc2cc(OCc3ccc(F)cc3)ccc2N1 |  | 19.6% | > 500 µM | 24.9 µM | > 20.1
Cn1c(=O)[nH]c2ccc(OCCc3cccc(Cl)c3)cc21 |  | 13.7% |  |  | 
CC1(C)C(=O)Nc2ccc(OCCOc3ccccc3)cc21 | Not Active |  |  |  | 

SMILES | INH [1] | inhibition at 1 µM [1] | IC50 [2] | IC50 [3] | Ratio IC50 [4]
Cn1c(=O)[nH]c2cc(OCc3ccccc3)ccc21 | Not Active |  |  |  | 
COc1ccc(OCCOc2ccc3c(c2)C(=C(C)C)C(=O)N3)cc1 | Not Active |  |  |  | 
Cc1ccc(COc2ccc3c(c2)C(C)(C)C(=O)N3)cc1 | Not Active |  |  |  | 
O=C1Cc2cc(OCCc3ccc(F)cc3)ccc2N1 |  | 18.1% | > 500 µM | 190 µM | > 2.63
COc1ccc(OCCOc2ccc3[nH]c(=O)n(C(C)C)c3c2)cc1 |  | 15.5% |  |  | 
CCn1c(=O)[nH]c2ccc(OCCOc3ccc(C(C)C)cc3)cc21 |  | 19% | > 500 µM | 278 µM | > 1.8
CC1(C)C(=O)Nc2ccc(OCCc3ccccc3)cc21 | Not Active |  |  |  | 
Cn1c(=O)[nH]c2ccc(OCc3ccc(Cl)cc3)cc21 |  | 8.29% | > 500 µM | 56.4 µM | > 8.87
CC(C)=C1C(=O)Nc2ccc(OCc3cccc(F)c3)cc21 | Not Active |  |  |  | 
O=C1Nc2ccc(OCc3cccc(Cl)c3)cc2C1=O |  | 93% | 311 µM | 0.046 µM | 6760
CC1(C)C(=O)Nc2ccc(OCc3ccc(Cl)c(Cl)c3)cc21 |  | 28.8% | > 500 µM | 132 µM | > 3.78
O=C1Nc2ccc(OCc3ccc(F)cc3)cc2C1=O |  | 92.5% | 235 µM | 0.073 µM | 3210
CC(C)n1c(=O)[nH]c2ccc(OCCOc3ccc(Cl)cc3)cc21 |  | 18.2% |  |  | 
Cc1ccc(COc2ccc3c(c2)C(C)C(=O)N3)cc1 (racemic) | Not Active |  |  |  | 
O=C1Nc2ccc(OCCc3ccc(F)cc3)cc2C1=O |  | 68.7% | > 500 µM | 0.102 µM | > 4900
CCn1c(=O)[nH]c2ccc(OCCOc3ccc(OC)cc3)cc21 |  | 13.9% |  |  | 
CCn1c(=O)[nH]c2ccc(OCc3cccc(C(F)(F)F)c3)cc21 |  | 12.5% |  |  | 
Cn1c(=O)[nH]c2cc(OCCc3ccccc3)ccc21 | Not Active |  |  |  | 
CC(C)=C1C(=O)Nc2ccc(OCCc3ccccc3)cc21 | Not Active |  |  |  | 
Cc1ccc(COc2ccc3c(c2)C(C(C)C)C(=O)N3)cc1 (configuration not stated) | Not Active |  |  |  | 
CCn1c(=O)[nH]c2ccc(OCc3ccc(C(F)(F)F)cc3)cc21 |  | 22.8% | > 500 µM | 184 µM | > 2.71
Cn1c(=O)[nH]c2ccc(OCc3ccc(Cl)c(Cl)c3)cc21 |  | 32.4% | > 500 µM | 7.68 µM | > 65
Cn1c(=O)[nH]c2ccc(OCc3cccc(F)c3)cc21 |  | 5.36% |  |  | 
Cn1c(=O)[nH]c2cc(OCc3cccc(Cl)c3)ccc21 |  | 23.4% | > 500 µM | 34.3 µM | > 14.6
